Test results: patent US20240409585A1, “MACROCYCLIC IMMUNOMODULATORS” (priority 2021, published 2024)
Where two headings read alike, the source gives them in different places. Numbered stars: 1 amine (or outer) side, 2 acyl side, 3 side chain; on linkers, the order of the positions; unused ones are H or OH. Bridge positions count the residues as written; N and C are the ends. Square brackets hold non-standard residues; d marks the D form. Peptide text beside a SMILES is read from it. * marks the point of attachment. Bip(4'-NHAc) = CC(=O)Nc1ccc(-c2ccc(C[C@H](N)C(=O)O)cc2)cc1; X17 = Nc1ccc(-c2cccc(C[C@H](N[*:1])C(=O)[*:2])c2)cn1; Phe(3-CF3) = N[C@@H](Cc1cccc(C(F)(F)F)c1)C(=O)O; Ala(morpholin-4-yl) = N[C@@H](CN1CCOCC1)C(=O)O; Phe(4-CONH2) = NC(=O)c1ccc(C[C@H](N)C(=O)O)cc1; Phe(4-COOH) = N[C@@H](Cc1ccc(C(=O)O)cc1)C(=O)O; X5 = CS(=O)(=O)NC(=O)C[C@H](N[*:1])C(=O)[*:2]; Bip = N[C@@H](Cc1ccc(-c2ccccc2)cc1)C(=O)O; Phe(3-Me) = Cc1cccc(C[C@H](N)C(=O)O)c1; Abu(3S-NH2) = C[C@H](N)[C@H](N)C(=O)O; Nva(5-OH) = N[C@@H](CCCO)C(=O)O; Cha = N[C@@H](CC1CCCCC1)C(=O)O; Carboxymethyl = O=C(O)C*; NMeA = CN[C@@H](C)C(=O)O; Dab = NCC[C@H](N)C(=O)O

Target: T1, Alexa fluor-647 labeled human PD-L1-Ig binding to Jurkat cell line over-expressing human PD-1 (Homo sapiens, UniProt Q15116)
T1 construct: expressed in transfected cells; host or cells: Jurkat
Assay: Jurkat-PD-1 Cell Binding High-Content Screening Assay (CBA): Method 3 (Alexa fluor-647 labeled PD-L1-Ig)
Details: Jurkat-PD-1 cells, Alexa fluor-647 labeled PD-L1-Ig 177 nM
Method: Jurkat-PD-1 Cell Binding High-Content Screening Assay (CBA): Method 3
Alexa fluor-647 was covalently linked to the Ig epitope tag of human PD-L1-Ig and fluorescently labeled PD-L1-Ig was used for the binding studies with a Jurkat cell line over-expressing human PD-1. Briefly, 2.5×10^4 Jurkat-hPD-1 cells were seeded into 384 well plates in 20 μl of RPMI supplemented with 10% fetal calf serum. 12.5 nl of compound was added to cells followed by incubation at 37° C. for 2 hours. Then, 10 ul of Alexa fluor-647 labeled PD-L1-Ig (177 nM final), diluted in RPMI supplemented with 10% fetal calf serum was added to the cells and incubated for 1 hour. Cells were then fixed with 4% paraformaldehyde containing 10 μg/ml Hoechst 33342 and then washed 3× in 100 ul PBS and 100 ul of PBS was added in the final step. Data was collected using the Operetta High Content Imager and the data was analyzed using the columbus software.

[1] = head μM, read-out: CBA Method 3 μM

T1 sequence (Q15116 25-288): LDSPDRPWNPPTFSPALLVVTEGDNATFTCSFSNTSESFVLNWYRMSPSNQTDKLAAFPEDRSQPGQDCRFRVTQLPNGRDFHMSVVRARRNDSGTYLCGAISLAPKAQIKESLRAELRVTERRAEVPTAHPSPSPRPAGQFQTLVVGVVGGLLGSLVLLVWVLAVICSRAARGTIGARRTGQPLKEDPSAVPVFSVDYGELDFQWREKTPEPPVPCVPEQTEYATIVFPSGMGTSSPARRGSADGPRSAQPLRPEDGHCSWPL

SMILES | IC50 [1] [µM] | IC50 (nM, read-out: CBA Method 3) [µM]
CC(=O)Nc1ccc(-c2ccc(C[C@@H]3NC(=O)[C@H](Cc4cccc(C(F)(F)F)c4)NC(=O)[C@H](CC(=O)NS(C)(=O)=O)NC(=O)[C@H](Cc4ccc(C(=O)O)cc4)NC(=O)[C@H]([C@H](C)N)NC(=O)CSC[C@@H](C(=O)N[C@@H](CCN)C(N)=O)NC(=O)[C@H](CCC(N)=O)NC(=O)[C@H](C(C)C)NC(=O)[C@H](CC4CCCCC4)NC(=O)[C@H](CCN)NC(=O)[C@@H](CC(C)C)NC(=O)[C@H](C)N(C)C(=O)[C@H](Cc4ccc(C(N)=O)cc4)NC(=O)[C@H](Cc4ccc(-c5ccccc5)cc4)NC3=O)cc2)cc1 [Example 5099] ({CH2CO}-[Abu(3S-NH2)][Phe(4-COOH)][X5][Phe(3-CF3)][Bip(4'-NHAc)][Bip][Phe(4-CONH2)][NMeA][dL][Dab][Cha]VQC[Dab]-NH2; thioether N-14) | 0.65 | 
Cc1cccc(C[C@@H]2NC(=O)[C@H](CC(=O)O)NC(=O)[C@H](Cc3ccc(OCC(=O)O)cc3)NC(=O)[C@H](CN3CCOCC3)NC(=O)CSC[C@@H](C(=O)N[C@@H](CCN)C(N)=O)NC(=O)[C@H](CCCO)NC(=O)[C@H](C(C)C)NC(=O)[C@H](CC3CCCCC3)NC(=O)[C@H](CCN)NC(=O)[C@@H](CC(C)C)NC(=O)[C@H](C)N(C)C(=O)[C@H](CCC(N)=O)NC(=O)[C@H](Cc3ccc(-c4ccccc4)cc3)NC(=O)[C@H](Cc3cccc(-c4ccc(N)nc4)c3)NC2=O)c1 [Example 5100] ({CH2CO}-[Ala(morpholin-4-yl)]Y(Carboxymethyl)D[Phe(3-Me)][X17][Bip]Q[NMeA][dL][Dab][Cha]V[Nva(5-OH)]C[Dab]-NH2; thioether N-14) | 0.27 | 
CC(C)C[C@H]1NC(=O)[C@H](C)N(C)C(=O)[C@H](Cc2ccc(C(=O)O)cc2)NC(=O)[C@H](Cc2ccc(-c3ccccc3)cc2)NC(=O)[C@H](Cc2ccc(C(N)=O)cc2)NC(=O)[C@H](Cc2cccc(C(F)(F)F)c2)NC(=O)[C@H](CC(=O)O)NC(=O)[C@H](Cc2ccc(C(=O)O)cc2)NC(=O)[C@H]([C@H](C)N)NC(=O)CSC[C@@H](C(=O)N[C@@H](CCN)C(N)=O)NC(=O)[C@H](CC(N)=O)NC(=O)[C@H](C(C)C)NC(=O)[C@H](CC2CCCCC2)NC(=O)[C@H](CCN)NC1=O [Example 5101] ({CH2CO}-[Abu(3S-NH2)][Phe(4-COOH)]D[Phe(3-CF3)][Phe(4-CONH2)][Bip][Phe(4-COOH)][NMeA][dL][Dab][Cha]VNC[Dab]-NH2; thioether N-14) |  | 0.0037

The remaining molecules from weak to strong by IC50 [1], led by results:

IC50 [1] [µM] | IC50 (nM, read-out: CBA Method 3) [µM] | SMILES
0.51 |  | CC(C)C[C@H]1NC(=O)[C@H](C)N(C)C(=O)[C@H](Cc2ccc(C(=O)O)cc2)NC(=O)[C@H](Cc2ccc(-c3ccccc3)cc2)NC(=O)[C@H](Cc2ccc(C(=O)O)cc2)NC(=O)[C@H](Cc2cccc(C(F)(F)F)c2)NC(=O)[C@H](CC(=O)N[C@@H](CC(=O)O)C(=O)O)NC(=O)[C@H](Cc2ccc(C(=O)O)cc2)NC(=O)[C@H]([C@H](C)N)NC(=O)CSC[C@@H](C(=O)N[C@@H](CCN)C(N)=O)NC(=O)[C@H](CC(N)=O)NC(=O)[C@H](C(C)C)NC(=O)[C@H](CC2CCCCC2)NC(=O)[C@H](CCN)NC1=O [Example 5102] ({CH2CO}-[Abu(3S-NH2)][Phe(4-COOH)]D(Asp)[Phe(3-CF3)][Phe(4-COOH)][Bip][Phe(4-COOH)][NMeA][dL][Dab][Cha]VNC[Dab]-NH2; thioether N-14)
0.01 |  | CC(=O)Nc1ccc(-c2ccc(C[C@@H]3NC(=O)[C@H](Cc4cccc(C(F)(F)F)c4)NC(=O)[C@H](CC(=O)O)NC(=O)[C@H](Cc4ccc(C(=O)O)cc4)NC(=O)[C@H](CCN)NC(=O)CSC[C@@H](C(=O)N[C@@H](CCN)C(N)=O)NC(=O)[C@H](CC(N)=O)NC(=O)[C@H](C(C)C)NC(=O)[C@H](CC4CCCCC4)NC(=O)[C@H](CCN)NC(=O)[C@@H](CC(C)C)NC(=O)[C@H](C)N(C)C(=O)[C@H](Cc4ccc(C(N)=O)cc4)NC(=O)[C@H](Cc4ccc(-c5ccccc5)cc4)NC3=O)cc2)cc1 [Example 5098] ({CH2CO}-[Dab][Phe(4-COOH)]D[Phe(3-CF3)][Bip(4'-NHAc)][Bip][Phe(4-CONH2)][NMeA][dL][Dab][Cha]VNC[Dab]-NH2; thioether N-14)
